In patent US20170247366A1, “SUBSTITUTED 4-ALKOXYPICOLINAMIDE ANALOGS AS MGLUR5 NEGATIVE ALLOSTERIC MODULATORS AND METHODS OF MAKING AND USING THE SAME” (VANDERBILT UNIVERSITY, priority 2014, published 2017):

Molecular target: T1, rat mGluR5 (Rattus norvegicus, UniProt P31424)
T1 construct: expressed in transfected cells
Assay: mGluR5 calcium flux assay in HEK 293A cells, negative allosteric modulation of glutamate EC80 response
Assay type: cell-based
Details: HEK cells transfected with rat mGluR5; glutamate EC80; ± is standard error of at least three experiments
Procedure: HEK 293A cells stably expressing either rat or human mGluR5 were plated in black-walled, clear-bottomed, poly-D-lysine coated 384-well plates in 20 μL of assay medium (DMEM containing 10% dialyzed FBS, 20 mM HEPES, 100 units/mL penicillin/streptomycin plus 250 ng/mL Fungizone, and 1 mM sodium pyruvate) at a density of 20K cells/well. The cells were grown overnight at 37° C. in the presence of 5% CO2. The next day, medium was removed and the cells incubated with 20 μL of 2.3 µM Fluo-4, AM prepared as a 2.3 mM stock in DMSO and mixed in a 1:1 ratio with 10% (w/v) pluronic acid F-127 and diluted in assay buffer (Hank's balanced salt solution, 20 mM HEPES, and 2.5 mM probenecid) for 45 minutes at 37° C. Dye was removed, 20 μL of assay buffer was added, and the plate was incubated for 5 minutes at room temperature.
Ca^2+ flux was measured using the Functional Drug Screening System (FDSS7000, Hamamatsu, Japan). After establishment of a fluorescence baseline for about 3 seconds, the compounds of the present invention were added to the cells, and the response in cells was measured. 2.3 minutes later an EC20 concentration of the mGluR5 receptor agonist glutamate was added to the cells, and the response of the cells was measured for 1.9 minutes; an EC80 concentration of agonist was added and readings taken for an additional 1.7 minutes. All test compounds were dissolved and diluted to a concentration of 10 mM in 100% DMSO. Compounds were then serially diluted 1:3 in DMSO into 10 point concentration response curves, transferred to daughter plates, and further diluted into assay buffer to a 2× stock. Calcium fluorescence measures were recorded as fold over basal fluorescence; raw data was then normalized to the maximal response to glutamate. Antagonism of the agonist response of the mGluR5 receptor in the present invention was observed as a decrease in response to nearly maximal concentrations of glutamate in the presence of compound compared to the response to glutamate in the absence of compound.
The raw data file containing all time points was used as the data source in the analysis template. This was saved by the FDSS as a tab-delimited text file. Data were normalized using a static ratio function (F/F0) for each measurement of the total 360 values per well divided by each well's initial value. Data were then reduced to peak amplitudes (Max−Initial Min) using a time range that starts approximately 3 seconds prior to the glutamate EC20/EC80 addition and continues for approximately 90-120 seconds. This is sufficient time to capture the peak amplitude of the cellular calcium response. Individual amplitudes were expressed as % EMax by multiplying each amplitude by 100 and then dividing the product by the mean of the amplitudes derived from the glutamate ECMax-treated wells. IC50 values for test compounds were generated by fitting the normalized values versus the log of the test compound concentration (in mol/L) using a 4 parameter logistic equation where none of the parameters were fixed. Each of the three values collected at each concentration of test compound were weighted evenly.
For NAMs with a CRC that plateaus above 10% Glu Max, the IC50 values are reported, the compound is designated a “partial NAM” and the % Glu Max is reported. […] Compounds without measurable activity are designated as “>30,000 nM” since the top concentration of compound tested in the assay is 30 µM. Exemplary data are provided in Tables 1 and 2 below.
Table 1 below lists specific compounds, experimentally determined molecular mass, and mGluR5 activity determined in a cell-based assay. The mGluR5 activity was determined using the metabotropic glutamate receptor activity assays in human embryonic kidney cells as described herein, wherein the human embryonic kidney cells were transfected with rat mGluR5. The mGluR5 activity data for some compounds are shown as the average of at least three experiments with the standard error in these cases. […]

T1 sequence (P31424 21-1203): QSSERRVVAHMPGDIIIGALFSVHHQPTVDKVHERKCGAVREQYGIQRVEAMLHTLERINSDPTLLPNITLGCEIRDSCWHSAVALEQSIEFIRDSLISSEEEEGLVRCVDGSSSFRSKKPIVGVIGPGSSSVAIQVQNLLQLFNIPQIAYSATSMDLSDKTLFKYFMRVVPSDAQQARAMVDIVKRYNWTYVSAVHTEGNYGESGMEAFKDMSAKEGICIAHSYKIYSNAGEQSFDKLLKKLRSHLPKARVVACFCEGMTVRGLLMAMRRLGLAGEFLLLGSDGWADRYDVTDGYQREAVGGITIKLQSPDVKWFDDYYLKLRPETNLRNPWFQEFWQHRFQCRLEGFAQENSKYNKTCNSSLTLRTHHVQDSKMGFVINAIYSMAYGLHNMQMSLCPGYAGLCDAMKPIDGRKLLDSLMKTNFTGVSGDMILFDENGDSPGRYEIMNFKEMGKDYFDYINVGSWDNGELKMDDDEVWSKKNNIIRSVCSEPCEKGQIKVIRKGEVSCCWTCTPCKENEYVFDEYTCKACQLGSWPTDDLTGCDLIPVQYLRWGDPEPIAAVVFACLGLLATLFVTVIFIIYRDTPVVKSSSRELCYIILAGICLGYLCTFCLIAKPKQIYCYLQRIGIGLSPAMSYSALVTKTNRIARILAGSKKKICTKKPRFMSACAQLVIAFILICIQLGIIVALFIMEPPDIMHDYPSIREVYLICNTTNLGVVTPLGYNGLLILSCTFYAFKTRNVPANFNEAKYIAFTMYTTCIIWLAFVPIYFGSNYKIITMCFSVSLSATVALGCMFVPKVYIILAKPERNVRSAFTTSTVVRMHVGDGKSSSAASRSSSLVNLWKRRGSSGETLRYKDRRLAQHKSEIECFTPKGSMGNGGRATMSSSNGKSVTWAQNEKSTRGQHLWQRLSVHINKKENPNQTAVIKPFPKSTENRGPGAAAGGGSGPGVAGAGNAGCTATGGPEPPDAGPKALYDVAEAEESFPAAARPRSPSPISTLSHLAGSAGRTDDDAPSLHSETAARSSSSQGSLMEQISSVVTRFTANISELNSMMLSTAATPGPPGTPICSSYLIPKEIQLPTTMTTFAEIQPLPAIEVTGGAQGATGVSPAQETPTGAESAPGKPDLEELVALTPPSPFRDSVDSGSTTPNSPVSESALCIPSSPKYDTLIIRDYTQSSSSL

| IC50 [nM] | Compound |
| --- | --- |
| 3340 | CCOC(=O)N1CC(Oc2cc(C)nc(C(=O)Nc3ccc(F)cn3)c2)C1 |
| 210 | Cc1cc(OCC2CCOC2)cc(C(=O)Nc2ccccn2)n1 (stereo not drawn) |
| 2510 | Cc1cc(OC2CN(C(=O)OC(C)C)C2)cc(C(=O)Nc2nc(C)cs2)n1 |
| 91 ± 3 | Cc1cc(O[C@H]2CCCOC2)cc(C(=O)Nc2nc(C)cs2)n1 |
| 742 | Cc1cc(OC2CS(=O)(=O)C2)cc(C(=O)Nc2ccc(F)cn2)n1 |
| 43 | Cc1cc(OC2CCC2)cc(C(=O)Nc2ccccn2)n1 |
| 863 | Cc1cc(OC2(C)COC2)cc(C(=O)Nc2ccc(F)cn2)n1 |
| 149 | Cc1cc(OC2CCCC2)cc(C(=O)Nc2nc(C)cs2)n1 |
| 59 | Cc1cccc(NC(=O)c2cc(OC3COC3)cc(C)n2)n1 |
| ≥ 10000 | Cc1cc(OCC2CCCCO2)cc(C(=O)Nc2ccc(F)cn2)n1 (stereo not drawn) |
| 194 | Cc1cc(O[C@H]2CCOC2)cc(C(=O)Nc2ccccn2)n1 |
| 1030 | COC[C@@H](C)Oc1cc(C)nc(C(=O)Nc2nc(C)cs2)c1 |
| 7680 | Cc1cc(OCC2COCCO2)cc(C(=O)Nc2ccc(F)cn2)n1 (stereo not drawn) |
| 932 | COC[C@H](C)Oc1cc(C)nc(C(=O)Nc2nc(C)cs2)c1 |
| 842 | CCOCCOc1cc(C)nc(C(=O)Nc2ccccn2)c1 |
| 4890 | Cc1cc(OC[C@H]2CCOC2)cc(C(=O)Nc2ccc(F)cn2)n1 |
| 3980 | Cc1cc(OC2CN(S(=O)(=O)C(C)C)C2)cc(C(=O)Nc2ccc(F)cn2)n1 |
| 862 | CCOC(=O)N1CC(Oc2cc(C)nc(C(=O)Nc3nc(C)cs3)c2)C1 |
| 1680 | Cc1cc(OC2CC3(COC3)C2)cc(C(=O)Nc2ccccn2)n1 |
| 82 ± 12 | COCCOc1cc(C)nc(C(=O)Nc2nc(C)cs2)c1 |
| 2330 | Cc1cc(OCC2CCCO2)cc(C(=O)Nc2ccc(F)cn2)n1 (stereo not drawn) |
| 7610 | COC[C@H](C)Oc1cc(C)nc(C(=O)Nc2ccc(F)cn2)c1 |
| 143 ± 32 | Cc1cc(OCC2COC2)cc(C(=O)Nc2nc(C)cs2)n1 |
| 844 | COCCCOc1cc(C)nc(C(=O)Nc2ccccn2)c1 |
| 9100 | COC[C@@H](C)Oc1cc(C)nc(C(=O)Nc2ccc(F)cn2)c1 |
| 3620 | Cc1cc(OC2CN(S(=O)(=O)C(C)C)C2)cc(C(=O)Nc2nc(C)cs2)n1 |
| 616 | Cc1cc(OCC2COCCO2)cc(C(=O)Nc2nc(C)cs2)n1 (stereo not drawn) |
| 1050 | CO[C@@H](C)COc1cc(C)nc(C(=O)Nc2nc(C)cs2)c1 |
| 1560 | Cc1cc(OC2CCOCC2)cc(C(=O)Nc2ccccn2)n1 |

Further lines, the compound ahead of its results:

| Compound | IC50 [nM] |
| --- | --- |
| Cc1cc(OC2CCSC2)cc(C(=O)Nc2ccc(F)cn2)n1 (stereo not drawn) | 75 |
| Cc1cc(OCC2CCCCO2)cc(C(=O)Nc2nc(C)cs2)n1 (stereo not drawn) | 1920 |
| COCCCOc1cc(C)nc(C(=O)Nc2ccc(F)cn2)c1 | 2630 |
| Cc1cc(OC2CCCC2)cc(C(=O)Nc2ccccn2)n1 | 182 |
| Cc1cc(OC2COC2)cc(C(=O)Nc2ccc(Cl)cn2)n1 | 1530 |
| Cc1cc(OC2CN(S(C)(=O)=O)C2)cc(C(=O)Nc2ccc(F)cn2)n1 | 1310 |
| CO[C@H](C)COc1cc(C)nc(C(=O)Nc2nc(C)cs2)c1 | 145 |
| Cc1cc(OCC2CCOC2)cc(C(=O)Nc2ccc(F)cn2)n1 (stereo not drawn) | 701 |
| Cc1cc(OC2COC2)cc(C(=O)Nc2ccccn2)n1 | 66 |
| CCOCCOc1cc(C)nc(C(=O)Nc2nc(C)cs2)c1 | 364 |
| Cc1cc(OC2CCSC2)cc(C(=O)Nc2nc(C)cs2)n1 (stereo not drawn) | 77 |
| Cc1cc(OC[C@H]2CCOC2)cc(C(=O)Nc2ccccn2)n1 | 972 |
| Cc1cc(O[C@H]2CO[C@H](C)C2)cc(C(=O)Nc2nc(C)c(F)s2)n1 | 1290 |
| COCCOCCOc1cc(C)nc(C(=O)Nc2ccc(F)cn2)c1 | 6930 |
| Cc1cc(OCC2CCCCO2)cc(C(=O)Nc2ccccn2)n1 (stereo not drawn) | 2970 |
| Cc1cc(O[C@H]2CO[C@H](C)C2)cc(C(=O)Nc2nc(C(F)(F)F)cs2)n1 | 5200 |
| Cc1cc(O[C@H]2CO[C@@H](C)C2)cc(C(=O)Nc2nc(C)cs2)n1 | 684 ± 107 |
| Cc1cc(OCC2CCOCC2)cc(C(=O)Nc2ccc(F)cn2)n1 | 5720 |
| CCS(=O)(=O)N1CC(Oc2cc(C)nc(C(=O)Nc3ccc(F)cn3)c2)C1 | > 10000 |
| Cc1cc(OC[C@@H]2CCOC2)cc(C(=O)Nc2ccccn2)n1 | 166 |
| Cc1cc(O[C@@H]2CCCOC2)cc(C(=O)Nc2ccccn2)n1 | 101 |
| Cc1cc(OC2CN(S(C)(=O)=O)C2)cc(C(=O)Nc2nc(C)cs2)n1 | 504 |
| Cc1cc(OC2CN(S(=O)(=O)CC(C)C)C2)cc(C(=O)Nc2ccc(F)cn2)n1 | > 30000 |
| Cc1cc(OCC2CCOCC2)cc(C(=O)Nc2ccccn2)n1 | 1460 |
| COCCOc1cc(C)nc(C(=O)Nc2ccccn2)c1 | 120 |
| COCCOCCOc1cc(C)nc(C(=O)Nc2ccccn2)c1 | 2540 |
| Cc1cc(OC2CN(C(=O)N(C)C)C2)cc(C(=O)Nc2ccc(F)cn2)n1 | > 10000 |
| Cc1cc(O[C@@H]2CCOC2)cc(C(=O)Nc2ccc(F)cn2)n1 | 41 ± 3 |
| CO[C@@H](C)COc1cc(C)nc(C(=O)Nc2ccccn2)c1 | 2210 |
| COC[C@H](C)Oc1cc(C)nc(C(=O)Nc2ccccn2)c1 | 2720 |

Same assay, conditions: rat mGluR5; CRC plateaus above 10% Glu Max

| Compound | NAM designation |
| --- | --- |
| Cc1cc(OC2CN(S(=O)(=O)C(C)C)C2)cc(C(=O)Nc2ccc(F)cn2)n1 | Partial NAM |

Same assay, conditions: rat mGluR5; average Glu Max at 30 μM; CRC does not hit a plateau

| Compound | % Glu Max at single concentration [%] |
| --- | --- |
| CCS(=O)(=O)N1CC(Oc2cc(C)nc(C(=O)Nc3ccc(F)cn3)c2)C1 | 62 |
| Cc1cc(OC2CN(C(=O)N(C)C)C2)cc(C(=O)Nc2ccc(F)cn2)n1 | 69 |

Same assay, conditions: rat mGluR5; response in presence of compound as percentage of maximal glutamate response; CRC plateaus above 10%

| Compound | % Glu Max (partial NAM, plateau of CRC) [%] |
| --- | --- |
| Cc1cc(OC2CN(S(=O)(=O)C(C)C)C2)cc(C(=O)Nc2ccc(F)cn2)n1 | 58 |

Tested on: N-methyl-D-aspartate (NMDA) receptor
Assay: not given
Details: at higher concentrations; cited from earlier work

| Compound | NMDA receptor activity inhibition |
| --- | --- |
| Cc1cccc(C#Cc2ccccc2)n1 [MPEP, 2-methyl-6-(phenylethynyl) pyridine] | directly inhibit |

Molecular target: mGluR4 (Homo sapiens, UniProt Q14833)
Sequence (Q14833 33-912): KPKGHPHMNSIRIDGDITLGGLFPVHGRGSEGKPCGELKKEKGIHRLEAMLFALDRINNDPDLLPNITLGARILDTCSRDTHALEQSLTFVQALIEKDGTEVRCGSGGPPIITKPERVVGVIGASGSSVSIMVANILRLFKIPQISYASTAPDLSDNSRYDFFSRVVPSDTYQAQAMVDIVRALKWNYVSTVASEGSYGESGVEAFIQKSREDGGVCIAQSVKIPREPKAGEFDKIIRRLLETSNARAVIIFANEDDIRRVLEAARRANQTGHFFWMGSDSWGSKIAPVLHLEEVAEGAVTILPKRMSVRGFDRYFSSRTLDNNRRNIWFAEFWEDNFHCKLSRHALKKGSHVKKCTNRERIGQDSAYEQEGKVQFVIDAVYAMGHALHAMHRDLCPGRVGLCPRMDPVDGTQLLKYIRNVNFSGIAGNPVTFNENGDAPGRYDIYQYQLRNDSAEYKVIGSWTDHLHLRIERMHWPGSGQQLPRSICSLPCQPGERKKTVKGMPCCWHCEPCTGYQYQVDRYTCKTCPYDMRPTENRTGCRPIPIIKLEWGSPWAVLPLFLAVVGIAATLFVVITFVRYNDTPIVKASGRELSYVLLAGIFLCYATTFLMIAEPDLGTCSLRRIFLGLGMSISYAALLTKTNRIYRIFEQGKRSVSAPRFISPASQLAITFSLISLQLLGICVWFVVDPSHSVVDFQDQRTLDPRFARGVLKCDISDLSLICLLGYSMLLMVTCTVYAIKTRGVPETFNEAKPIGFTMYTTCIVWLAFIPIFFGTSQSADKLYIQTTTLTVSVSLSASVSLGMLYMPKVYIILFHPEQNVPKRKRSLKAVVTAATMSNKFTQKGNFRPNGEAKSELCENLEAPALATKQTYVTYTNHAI
Assay: not given
Details: cited from earlier work

| Compound | Activity at mGluR4 |
| --- | --- |
| Cc1cccc(C#Cc2ccccc2)n1 [MPEP, 2-methyl-6-(phenylethynyl) pyridine] | positive allosteric modulator |

Molecular target: T2, cytochrome P450 1A2 (Homo sapiens, UniProt P05177)
T2 sequence (P05177 1-516): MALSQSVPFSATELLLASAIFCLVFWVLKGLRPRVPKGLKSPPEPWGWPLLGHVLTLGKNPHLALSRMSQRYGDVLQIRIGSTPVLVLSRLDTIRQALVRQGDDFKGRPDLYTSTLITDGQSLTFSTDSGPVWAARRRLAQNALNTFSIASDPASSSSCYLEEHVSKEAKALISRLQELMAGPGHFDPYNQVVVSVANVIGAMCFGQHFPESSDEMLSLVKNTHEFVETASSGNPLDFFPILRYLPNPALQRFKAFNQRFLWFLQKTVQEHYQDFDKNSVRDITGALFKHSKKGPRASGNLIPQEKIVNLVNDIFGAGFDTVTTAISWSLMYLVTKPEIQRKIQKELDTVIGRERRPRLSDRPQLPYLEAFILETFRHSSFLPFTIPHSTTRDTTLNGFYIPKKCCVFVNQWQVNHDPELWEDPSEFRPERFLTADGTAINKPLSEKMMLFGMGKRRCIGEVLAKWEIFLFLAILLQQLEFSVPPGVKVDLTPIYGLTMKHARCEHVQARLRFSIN
Assay: not given
Details: cited from earlier work

| Compound | Inhibition of cytochrome P450 1A2 |
| --- | --- |
| Cc1nc(C#Cc2cccnc2)cs1 [MTEP, 3-[(2-methyl-1,3-thiazol-4-yl)ethynyl]pyridine] | potent inhibitor |

Tested on: not given
Assay: not given
Details: intravenous administration to rhesus monkeys; cited from earlier work

| Compound | Clearance |
| --- | --- |
| Cc1nc(C#Cc2cccnc2)cs1 [MTEP, 3-[(2-methyl-1,3-thiazol-4-yl)ethynyl]pyridine] | efficiently cleared |

Tested on: marble burying in mice
Assay: not given
Details: cited from earlier work

| Compound | Efficacy in marble burying model |
| --- | --- |
| CN1CC(=O)N=C1NC(=O)Nc1cccc(Cl)c1 [fenobam, 1-(3-chlorophenyl)-3-(1-methyl-4-oxo-4,5-dihydro-1H-imidazol-2-yl)urea] | effective |
| Cc1cccc(C#Cc2ccccc2)n1 [MPEP, 2-methyl-6-(phenylethynyl) pyridine] | effective |
